Biological target: T1, EF-Tu:GTP:aa-tRNA ternary complex (Escherichia coli, UniProt P0CE48, C138A/C256V/E349C)
T1 construct: made in house; host or cells: E. coli BL-21
Type: binding
Conditions: for effect of the inhibitor on fluorescence intensity in the assay: addition of inhibitor to the formed ternary complex, Ex 532/Em 665 nm
Protocol: FRET Assay (Assembly Fluorescence)
FRET measurements were done using Photon Technology International fluorescence spectrofluorometer with FeliX software. Cy3 fluorescence was monitored in the spectrum or time base mode at excitation/emission 549/565 nm. […] The slot parameters and photomultiplier voltage were adjusted to get a response in the range of 0.5-1.2×10^6 RFU for the Cy3 fluorescence scan at the 20-30 nM Phe-tRNA^Phe(Cy3) concentration and 4-5×10^4 RFU for Cy5 fluorescence scan (excitation/emission 633/665 nm) at the 300-400 nM Cy5-EF-Tu concentration. The titration of Phe-tRNA^Phe(Cy3) by Cy5-EF-Tu was typically done in presence of 100 μM GTP in a 150 μl volume of the same incubation buffer as used in the above mentioned gel retardation assay. During the assay (up to 120 minutes), the reaction mix also was supplemented with 1 mM ATP and 5 μg/ml of Phe-tRNA synthetase to prevent deacylation of Phe-tRNA^Phe(Cy3). The concentration of Phe-RNA^Phe(Cy3) was up to 30 nM and GTP:Cy5-EF-Tu was varied in range of 30-240 nM.
All FRET measurements were done using PTI (Photon Technology International) fluorescence spectrofluorometer with FeliX 1.42B software. The FRET was monitored in the time-base mode using the 532 nm excitation and 665 nm emission (suitable for the Cy5 dye). The slot parameters and photomultiplier voltage were adjusted to get a response in the range of 2.6-3×10^3 RFU for the Cy5 fluorescence at a 200 nM concentration of Cy5-labeled EF-Tu. Time-base titration experiments were typically carried out in a 150 μl black cuvette at 25 or 37° C. The Cy5 fluorescence was monitored at five second intervals for up to 2 hours. Cy5-labeled EF-Tu carrying the E348C mutation was added from a concentrated stock solution to reach the final concentration of 180-200 nM.
The 5× incubation buffer was 350 mM HEPES-KOH (pH 7.6), 260 mM NH4OAc, 40 mM Mg(OAc)2, 150 mM KCl, 7 mM DTT and 12.6% glycerol. The 1× incubation buffer in final reaction volume was also supplemented with 1 mM ATP and 5 μg/ml of Phe-tRNA synthetase, 7.2 mM phosphoenolpyruvate and 2.5 U/ml pyruvate kinase; a 40 μM stock of Cy3-labeled aminoacylated tRNA^Phe, a 30 μM stock of Cy3-labeled uncharged tRNA^Phe, a 110 μM stock of Cy5-labeled EF-Tu [C137A, C255V, E348C], a 5 mg/ml stock of Phe-tRNA synthetase, and a 10 mM stock in DMSO (7.97 mg/ml) of Kirromycin (FW 796.9).
The Cy5-labeled EF-Tu [180 nM] (GTP form) in a 300 μl volume was placed in 1× incubation buffer. The volume was split into two parts and measured in two sets at 25° C.
The Cy5-labeled EF-Tu [180 nM] (GTP form) in a 300 μl volume was placed in 1× incubation buffer. The reaction was split into two parts and supplemented with 100 μM GTP (Set I) or GDP (Set II). The fluorescence intensity was measured at 25° C.
The Cy5-labeled EF-Tu [320 nM] (GTP form) was in a 300 μl volume of the 1× incubation buffer. The reaction was supplemented with 100 μM GTP and split on two parts.

T1 sequence (P0CE48 2-394 C138A/C256V/E349C, one chain of several): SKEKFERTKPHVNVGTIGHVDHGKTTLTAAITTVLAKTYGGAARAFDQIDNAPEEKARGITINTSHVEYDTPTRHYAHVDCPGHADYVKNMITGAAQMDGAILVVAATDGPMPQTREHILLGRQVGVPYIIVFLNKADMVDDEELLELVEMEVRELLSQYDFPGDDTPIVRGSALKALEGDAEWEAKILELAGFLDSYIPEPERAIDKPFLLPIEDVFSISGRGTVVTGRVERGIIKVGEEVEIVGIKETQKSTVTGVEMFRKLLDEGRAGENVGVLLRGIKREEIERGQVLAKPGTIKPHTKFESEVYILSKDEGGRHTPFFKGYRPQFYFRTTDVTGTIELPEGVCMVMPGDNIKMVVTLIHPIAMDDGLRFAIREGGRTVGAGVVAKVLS

| Molecule | decrease in the Cy5 fluorescence of the formed complex (10-fold molar excess of GDP added to formed complex, Cy5-EF-Tu 180 nM, 100 μM GTP, Phe-tRNA^Phe(Cy3) 160 nM, 25° C., FIG. 12) [%] | FRET response when Cy5-labeled EF-Tu was incubated with GDP (Cy5-EF-Tu 180 nM incubated with 100 μM GDP instead of GTP (plot 2 / set II), FIG. 12) | effect of the inhibitor on fluorescence intensity in the assay | decrease of FRET response after addition of kirromycin (kirromycin 80 μM, Cy5-labeled EF-Tu 180 nM (GTP form), Cy3-PhetRNA^Phe 160 nM, 25° C., FIG. 13) |
| --- | --- | --- | --- | --- |
| Nc1nc2c(ncn2[C@@H]2O[C@H](COP(=O)(O)OP(=O)(O)O)[C@@H](O)[C@H]2O)c(=O)[nH]1 [GDP] | 60 | significantly lower | significantly reduces the fluorescence intensity |  |
| kirromycin |  |  | significantly reduces the fluorescence intensity | approximately 30% |

— patent US10174358B2 (priority 2013, dated 2019)
